According to patent publication US9980943B2, “Methods of treating muscular dystrophy” (BOARD OF REGENTS OF THE NEVADA SYSTEM OF HIGHER EDUCATION, …, priority 2013, dated 2018):

Tests used:
Assay type in all cases: cell-based, mouse
[1] = test system: α7 integrin (LacZ reporter in α7+/LacZ myotubes); test: Myotube α7 integrin FDG assay (Burkin assay in myotubes, 96-well); conditions: myotubes
[2] = test system: β-galactosidase in CMV-LacZ C2C12 myoblasts; test: CMV-LacZ secondary screen in C2C12 myoblasts (β-Gal stabilizing assay); conditions: CMV-LacZ C2C12 myoblasts
How it was run: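 Dose-response runs at 0.5–40 μM (0.5, 1, 5, 10, 20, 40 μM; N=2 per point) used a clonal C2C12 line carrying CMV-LacZ. Cells were assayed as myoblasts or as differentiated myotubes, and β-galactosidase levels were read with the FDG fluorogenic substrate.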

[3] = test system: β-galactosidase in CMV-LacZ C2C12 myotubes; test: CMV-LacZ secondary screen in C2C12 myotubes (β-Gal stabilizing assay); conditions: C2C12 CMV-LacZ myotubes, fold relative to DMSO
How it was run: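 Stable CMV-LacZ C2C12 clone; six-point curve 0.5–40 μM; duplicates.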

[4] = test system: α7 integrin (LacZ reporter in α7βgal+/− myoblasts); test: Myoblast α7+/LacZ integrin FDG assay (Burkin assay in myoblasts, 96-well); conditions: α7+/LacZ myoblasts, 96-well

Compound	Burkin Assay in Myotubes, α7 integrin LacZ reporter signal relative to DMSO ([1]; 0.5 uM)	Burkin Assay in Myotubes, α7 integrin LacZ reporter signal relative to DMSO ([1]; 1 uM)	Burkin Assay in Myotubes, α7 integrin LacZ reporter signal relative to DMSO ([1]; 5 uM)	Burkin Assay in Myotubes, α7 integrin LacZ reporter signal relative to DMSO ([1]; 10 uM)	Burkin Assay in Myotubes, α7 integrin LacZ reporter signal relative to DMSO ([1]; 20 uM)	Burkin Assay in Myotubes, α7 integrin LacZ reporter signal relative to DMSO ([1]; 40 uM)	CMV-LACZ in Myoblasts (β-galactosidase activity relative to DMSO) ([2]; 0.5 uM)	CMV-LACZ in Myoblasts (β-galactosidase activity relative to DMSO) ([2]; 1 uM)	CMV-LACZ in Myoblasts (β-galactosidase activity relative to DMSO) ([2]; 5 uM)	CMV-LACZ in Myoblasts (β-galactosidase activity relative to DMSO) ([2]; 10 uM)	CMV-LACZ in Myoblasts (β-galactosidase activity relative to DMSO) ([2]; 20 uM)	CMV-LACZ in Myoblasts (β-galactosidase activity relative to DMSO) ([2]; 40 uM)	CMV-LACZ in Myotubes, signal relative to DMSO ([3]; 0.5 uM)	CMV-LACZ in Myotubes, signal relative to DMSO ([3]; 1 uM)	CMV-LACZ in Myotubes, signal relative to DMSO ([3]; 5 uM)	CMV-LACZ in Myotubes, signal relative to DMSO ([3]; 10 uM)	CMV-LACZ in Myotubes, signal relative to DMSO ([3]; 20 uM)	CMV-LACZ in Myotubes, signal relative to DMSO ([3]; 40 uM)	Burkin Assay in Myoblasts, signal relative to DMSO ([4]; 0.5 uM)	Burkin Assay in Myoblasts, signal relative to DMSO ([4]; 1 uM)	other results
CCCCN1CC(=O)N2Cc3[nH]c4ccccc4c3C[C@H]2C1=O [MLS001165424-01]	0.8771	0.8568	0.8938	0.8315	0.7791	0.7641	1.1754	0.9796	1.0607	1.0078	1.2730	1.2074	0.9152	1.1248	1.0571	1.1758	1.0316	0.8558	1.152	1.2222	Burkin Assay in Myoblasts, signal relative to DMSO ([4]; 5 uM): 0.9966; Burkin Assay in Myoblasts, signal relative to DMSO ([4]; 10 uM): 0.9548; Burkin Assay in Myoblasts, signal relative to DMSO ([4]; 20 uM): 1.176; Burkin Assay in Myoblasts, signal relative to DMSO ([4]; 40 uM): 1.23
COC(=O)Cn1c(=O)c2c(nc3n2CC(C)CN3Cc2ccccc2)n(C)c1=O (stereo not drawn) [MLS001166758-01]	1.0327	1.027	0.9857	0.8979	0.9856	0.8754	0.9357	1.0175	1.1998	1.0661	0.6126	0.3481	0.9958	0.7474	0.9780	0.9444	1.1044	0.9867	0.824	0.7394	Burkin Assay in Myoblasts, signal relative to DMSO ([4]; 5 uM): 0.9736; Burkin Assay in Myoblasts, signal relative to DMSO ([4]; 10 uM): 0.8245; Burkin Assay in Myoblasts, signal relative to DMSO ([4]; 20 uM): 0.7275; Burkin Assay in Myoblasts, signal relative to DMSO ([4]; 40 uM): 0.6174
CC(NC(=O)c1ccc(C(C)(C)C)cc1)C(c1cccs1)N1CCOCC1 (stereo not drawn) [MLS001167281-01]	1.063	1.054	1.074	1.142	0.8293	0.8345	1.0114	1.1289	0.9684	1.1951	0.9256	0.7467	1.0663	1.0789	0.8948	0.9727	1.1089	0.9722	1.089	1.18	Burkin Assay in Myoblasts, signal relative to DMSO ([4]; 5 uM): 1.075; Burkin Assay in Myoblasts, signal relative to DMSO ([4]; 10 uM): 0.9776; Burkin Assay in Myoblasts, signal relative to DMSO ([4]; 20 uM): 0.8869; Burkin Assay in Myoblasts, signal relative to DMSO ([4]; 40 uM): 0.8618
